Test results as given in ChEMBL document CHEMBL2440082, “New non-symmetrical choline kinase inhibitors” (Bioorg Med Chem, 2013).
Active and inactive are the calls of the source. The rule behind the calls is not given here.

Key:
Homo sapiens [1] = species on record: Homo sapiens; experiment: Inhibition of human ChoK activity assessed as inhibition of incorporation of [14C] from methyl[14C]choline into phosphocholine at 50 uM after 20 mins by scintillation counting
Homo sapiens [2] = species on record: Homo sapiens; experiment: Inhibition of human ChoK activity assessed as inhibition of incorporation of [14C] from methyl[14C]choline into phosphocholine at 10 uM after 20 mins by scintillation counting
HepG2 [3] = experiment: Cytotoxicity against human HepG2 cells at 50 uM after 24 hrs by crystal violet-staining assay; assay type: cell-based; conditions: hepg2, 24 h
HepG2 [4] = experiment: Cytotoxicity against human HepG2 cells at 10 uM after 24 hrs by crystal violet-staining assay; assay type: cell-based; conditions: hepg2, 24 h
HepG2 [5] = experiment: Antiproliferative activity against human HepG2 cells at 5 uM after 24 hrs by crystal violet-staining assay; assay type: functional
HepG2 [6] = experiment: Antiproliferative activity against human HepG2 cells at 1 uM after 24 hrs by crystal violet-staining assay; assay type: functional
HepG2 [7] = experiment: Antiproliferative activity against human HepG2 cells at 50 uM after 24 hrs by crystal violet-staining assay; assay type: functional
HepG2 [8] = experiment: Antiproliferative activity against human HepG2 cells at 10 uM after 24 hrs by crystal violet-staining assay; assay type: functional
[9] = Inhibition of human ChoK activity assessed as inhibition of incorporation of [14C] from methyl[14C]choline into phosphocholine after 20 mins by scintillation counting

Row | Compound | inhibition (Homo sapiens [1]) | inhibition (Homo sapiens [2]) | Activity (HepG2 [3]) | Activity (HepG2 [4]) | Activity (HepG2 [5]) | Activity (HepG2 [6]) | Activity (HepG2 [7]) | Activity (HepG2 [8]) | IC50 [9]
1 | Oc1cccc(NCc2ccc(-c3ccc(C[n+]4ccc(N5CCCC5)cc4)cc3)cc2)c1.[Br-] | 28.2% | inactive | Toxic | Toxic | 52.99% | 48.52% | – | – | –
2 | Nc1cccc(OCc2ccc(C[n+]3ccc(N4CCCC4)cc3)cc2)c1 | 12.9% | 3.8% | – | – | inactive | inactive | inactive | inactive | –
3 | CN(C)c1cc[n+](Cc2ccc(CNc3cccc(O)c3)cc2)cc1.[Br-] | 52.4% | 27.5% | – | – | 13.01% | 7.74% | 54.51% | 24.38% | –
4 | CN(C)c1cc[n+](Cc2ccc(COc3cccc(N)c3)cc2)cc1.[Br-] | 37.7% | 14.8% | – | – | inactive | inactive | 22.48% | inactive | –
5 | CN(C)c1cc[n+](Cc2ccc(CCCCc3ccc(COc4cccc(N)c4)cc3)cc2)cc1.[Br-] | inactive | inactive | – | – | 18.32% | 10.14% | 46.67% | 22.68% | –
6 | Oc1cccc(NCc2ccc(CCCCc3ccc(C[n+]4ccc(N5CCCC5)cc4)cc3)cc2)c1.[Br-] | 18% | inactive | Toxic | Toxic | 48.96% | inactive | – | – | –
7 | CN(C)c1cc[n+](Cc2ccc(CCCCc3ccc(CNc4cccc(O)c4)cc3)cc2)cc1.[Br-] | 12.9% | 3.8% | – | – | 13.09% | 4.58% | 71.1% | 30.86% | –
8 | Oc1cccc(NCc2ccc(CCc3ccc(C[n+]4ccc(N5CCCC5)cc4)cc3)cc2)c1.[Br-] | 13.6% | inactive | Toxic | Toxic | 67.39% | 11.19% | – | – | –
9 | Nc1cccc(OCc2ccc(CCc3ccc(C[n+]4ccc(N5CCCC5)cc4)cc3)cc2)c1.[Br-] | inactive | inactive | Toxic | Toxic | 76.04% | 55.37% | – | – | –
10 | CN(C)c1cc[n+](Cc2ccc(CCc3ccc(COc4cccc(N)c4)cc3)cc2)cc1.[Br-] | 21.9% | inactive | – | – | 6.98% | 7.42% | 59.54% | 30.53% | –
11 | CN(C)c1cc[n+](Cc2ccc(CCCCc3ccc(Cn4cnc5c(N)ncnc54)cc3)cc2)cc1.[Br-] | 89.7% | 66.7% | – | – | – | – | 45.5% | 10.2% | –
12 | CN(C)c1cc[n+](Cc2ccc(-c3ccc(Cn4cnc(N)c5ncnc4-5)cc3)cc2)cc1.[Br-] | 71.4% | 62.3% | – | – | – | – | 7% | 10% | –
13 | Oc1cccc(NCc2ccc(C[n+]3ccc(N4CCCC4)cc3)cc2)c1.[Br-] | 41.3% | inactive | – | – | 13.43% | 2.91% | 8.53% | 9.54% | –
14 | CN(C)c1cc[n+](Cc2ccc(CCc3ccc(CNc4cccc(O)c4)cc3)cc2)cc1.[Br-] | 39.5% | inactive | – | – | 18.43% | 5.56% | 73.4% | 34.1% | –
15 | CN(C)c1cc[n+](Cc2ccc(-c3ccc(COc4cccc(N)c4)cc3)cc2)cc1.[Br-] | 79.8% | 54.4% | Toxic | – | 16.23% | 8.5% | – | 24.4% | 6.37 µM
16 | Nc1cccc(OCc2ccc(CCCCc3ccc(C[n+]4ccc(N5CCCC5)cc4)cc3)cc2)c1.[Br-] | 21.6% | inactive | Toxic | Toxic | 83.21% | 57.69% | – | – | –
17 | Nc1cccc(OCc2ccc(-c3ccc(C[n+]4ccc(N5CCCC5)cc4)cc3)cc2)c1.[Br-] | 20.8% | inactive | Toxic | Toxic | 57.24% | 40.52% | – | – | –
18 | CN(C)c1cc[n+](Cc2ccc(-c3ccc(CNc4cccc(O)c4)cc3)cc2)cc1.[Br-] | 66.2% | 54.2% | – | – | inactive | inactive | 24.4% | 9.86% | 7.89 µM
